{"source": "patent US7547799B1", "about": "“Method for producing phenolic compound” (Sabic Innovative Plastics IP B.V., priority 2008, dated 2009)", "assay": "Determination of the solubility of BMSC in MeOH at 65° C. (with reflux)", "format": "physicochemical", "method": "Determination of the Solubility of BMSC in MeOH at 65° C. (with Reflux):\nBMSC was loaded in a round bottom flask, a small amount of MeOH was added to the BMSC, to form a slurry. This mixture was heated up to 65° C. under reflux. MeOH was then continuously added under vigorous stirring, until a lucid and colorless solution was obtained."}
{"smiles": "COC(=O)c1ccccc1OC(=O)Oc1ccccc1C(=O)OC", "note": "[BMSC, bismethylsalicylcarbonate]", "values": [{"measurement": "solubility of BMSC in MeOH (lucid and colorless solution obtained)", "setting": "65° C., under reflux, vigorous stirring", "value": 5.8, "unit": "mass %"}, {"measurement": "solution of BMSC in MeOH obtainable under reflux", "setting": "restated in the discussion", "value": 6, "unit": "%"}]}
